According to patent publication US20140350050A1, “PYRIDINE COMPOUNDS AS INHIBITORS OF KINASE” (TELIGENE LTD., priority 2011, published 2014):
Like-named read-outs stand apart in the source and are kept apart here.

Key:
[1] = biological target: T1, BAF3-EML4-ALK stable cell line (Homo sapiens, UniProt Q9UM73); assay: BAF3-EML4-ALK cell assay (MTT cell proliferation); format: cell-based; details: 72 hours, read-out: BAF3-EML4-ALK Cell (IC50 grading)
T1 construct: fused on or other part: Q9HC35 (Echinoderm microtubule-associated protein-like 4)
Experimental: BAF3-EML4-ALK Cell Assay:
A method of establishing BAF3-EML4-ALK stable cell line: Transfer 5×10^6 BAF3 cells to a new tube, pellet the cells, and remove PBS by aspiration.; Resuspend the cells in 1 ml electroporation buffer, this provides 5×10^6 of cells; Transfer 200 μl of cell suspension to EP tube, add 5 ug DNA, flip and place it on ice for 10 min; Pipet the 200 μl cell suspension into 2 mm electroporation cuvette; Place the cuvette into shockpod, close the lid, and press the PULSE button; Set parameters: Expentional decay pulse: VOL=200 V; CAP=900 uF, RES=1000Ω; Transfer all cells from electroporation cuvette to 6 well plate, adding 2 ml DMEMF12 containing 5 ng/ml IL3, 24 h later, replace the medium with DMEM F12 containing 2 μg/ml blasticidin S and 5 ng/ml IL3, maintain for 3 days; change the medium with DMEM F12 containing 2 ug/ml blasticidin S and 2.5 ng/ml IL3, maintain 3 days; change the medium with DMEM F12 containing 2 ug/Ml blasticidin S, maintain to culture.
MTT Cell proliferation assay: 5×10^3 per well cell with 100 μl medium was seeded in 96-well plate; 24 hours later, 100 μl fresh medium with various concentration of compounds; After the cells were treated by compounds for 72 hours, add 20 μl MTT (5 mg/ml) into each wells; The plate is incubated at 37° C. for 4 hours; Centrifuge the plate at 800 g for 10 mins, Aspirated the medium, add 150 μl DMSO into each well. Shake plates gently for 10 mins, Measure the absorbance at 570 nm on plate reader; IR=(WC−WT)/WC.

[2] = test system: EML4-ALK-BAF3 cell line xenograft; format: in vivo; details: 40 mg/kg oral gavage once daily
Source text: A representative protocol for the in vivo experiment is as followed to establish the subcutaneous EML4-ALK-BAF3 cell line xenograft model in nude mice and to evaluate the in vivo therapeutic efficacy of the compounds: Animals: Male Balb/c nude mice (6˜8 weeks old) were obtained from SLAC Laboratory Animal, Shanghai, China. Animals were maintained under SPF conditions in sterile filter top cages and housed on HEPA-filtered ventilated racks. Animals received sterile rodent chow and water ad libitum. Cell line: BAF3-EML4-ALK stable cell line, the BAF3 cell which could expressed fusion oncogene EML4-ALK. S.c. Xenograft Models in Athymic Mice: Cells for implantation into athymic mice were harvested and pelleted by centrifugation at 1200 r/min for 5 min. Cells were washed once and resuspended in sterile PBS buffer with 5×10^6 in 200 μl. Then cells were implanted s.c. into the right scapular region of each mouse and allowed to grow to 200˜300 mm^3 before the administration of compound. Preparation of the Dose Formulation: each compound was suspensioned in 0.5% CMC-Na. Randomization: When tumor volumes approach 200˜300 mm^3, the mice will be randomized into 5 groups according to the tumor volume. The day will be denoted as D1 and the treatments will be started at this day. Administered: Dose will be administered with oral gavage needle once daily for number of days. Treatment of compounds administered in 0.5% CMC-Na by p.o. gavage was initiated when tumors were 200˜300 mm^3 in volume. Observations: After inoculation, the animals will be checked daily for morbidity and mortality. At the time of routine monitoring, the animals will be checked for any effects of tumor growth and treatments on normal behavior such as mobility, body weight gain/loss (body weights will be measured twice weekly or every other day), eye/hair matting and any other abnormal effect. Death and observed clinical signs will be recorded on the basis of the numbers of animals within each subset. Tumor Size Measurements: Tumor volume was determined by measurement with electronic vernier calipers every 3 days and tumor volume was calculated as the product of its length×width^2×0.5. Effect studies: Tumor volume was expressed on indicated days as the mean tumor volume ±SD. […] Significant differences between the treated versus the control groups (p<0.05) were determined using t test. At study endpoint, after blood collection, mice were practiced euthanasia by cervical dislocation, the tumor tissue was collected first, then abdominal cavity was cut open, liver and spleen were excised, then weight after the gallblader was removed respectively. Organ weight and Organ/body weight ratios between the treated versus the control groups were compared. Ratios was calculated as follows: Ratios=Organ weight/(body weight-tumor weight). Both organ weight and Organ/body weight ratios were also expressed as mean±SD, and significant differences between the treated versus the control groups (p<0.05) were determined using t test.

[3] = biological target: ALK kinase (Homo sapiens, UniProt Q9UM73); assay: ALK kinase assay; format: biochemical
Experimental: An in vitro assay which determines the ability of a test compound to inhibit ALK kinase. a) kinase-tagged T7 phage strains were prepared in an E. coli host derived from the BL21 strain. E. coli were grown to log-phase and infected with T7 phage and incubated with shaking at 32° C. until lysis. The lysates were centrifuged and filtered to remove cell debris. The remaining kinases were produced in HEK-293 cells and subsequently tagged with DNA for qPCR detection. […] The liganded beads were blocked with excess biotin and washed with blocking buffer (SeaBlock (Pierce), 1% BSA, 0.05% Tween 20, 1 mM DTT) to remove unbound ligand and to reduce non-specific binding. […] All reactions were performed in polystyrene 96-well plates in a final volume of 0.135 ml. […] The kinase concentration in the eluates was measured by qPCR. […]
b) An alternative method to conduct the kinase assay with the following condition and procedure: Reagent: Base Reaction buffer; 20 mM Hepes (pH 7.5), 10 mM MgCl2, 1 mM EGTA, 0.02% Brij35, 0.02 mg/ml BSA, 0.1 mM Na3VO4, 2 mM DTT, 1% DMSO.
1. Preparing indicated substrate in freshly prepared Base Reaction Buffer
2. Delivering any required cofactors to the substrate solution above
3. Delivering indicated kinase into the substrate solution and gently mix
4. Delivering compounds in DMSO into the kinase reaction mixture
5. Delivering ^33P-ATP (specific activity 0.01 μCi/μl final) into the reaction mixture to initiate the reaction.
6. Incubating kinase reaction for 120 min. at room temperature
7. Reactions are spotted onto P81 ion exchange paper (Whatman #3698-915)
8. Washing filters extensively in 0.75% Phosphoric acid. […]
c) An alternative method to conduct the kinase assay with the following condition and procedure: The assay was performed using Kinase-Glo Plus luminescence kinase assay kit (Promega). It measures kinase activity by quantitating the amount of ATP remaining in solution following a kinase reaction. The luminescent signal from the assay is correlated with the amount of ATP present and is inversely correlated with the amount of kinase activity.
The compound were diluted in 10% DMSO and 5 μl of the dilution was added to a 50 μl reaction so that the final concentration of DMSO is 1% in all of reactions. All of the enzymatic reactions were conducted at 30° C. for 40 minutes. The 50 μl reaction mixture contains 40 mM Tris, pH 7.4, 10 mM MgCl2, 0.1 mg/ml BSA, 1 mM DTT, 0.2 mg/ml substrate peptide, 10 μM ATP and ALK (Table 2.3.1). After the enzymatic reaction, 50 μl of Kinase-Glo Plus Luminescence kinase assay solution (Promega) was added to each reaction and incubate the plate for 5 minutes at room temperature. Luminescence signal was measured using a BioTek Synergy 2 microplate reader. ALK activity assays were performed in duplicate at each concentration. The luminescence data were analyzed using the computer software, Graphpad Prism. The difference between luminescence intensities in the absence of ALK (Lut) and in the presence of ALK (Luc) was defined as 100% activity (Lut−Luc). Using luminescence signal (Lu) in the presence of the compound, % activity was calculated as % activity={(Lut−Lu)/(Lut−Luc)}×100%, where Lu=the luminescence intensity in the presence of the compound (all percent activities below zero were shown zero in the table). The values of % activity versus a series of compound concentrations were then plotted using non-linear regression analysis of Sigmoidal dose-response curve generated with the equation Y=B+(T−B)/1+10^((Log EC50−X)×Hill Slope), where Y=percent activity, B=minimum percent activity, T=maximum percent activity, X=logarithm of compound and Hill Slope=slope factor or Hill coefficient. The IC50 value was determined by the concentration causing a half-maximal percent activity.

[4] = ALK kinase assay, read-out: ALK (IC50 grading)

Chain of ALK kinase (Q9UM73 19-1620): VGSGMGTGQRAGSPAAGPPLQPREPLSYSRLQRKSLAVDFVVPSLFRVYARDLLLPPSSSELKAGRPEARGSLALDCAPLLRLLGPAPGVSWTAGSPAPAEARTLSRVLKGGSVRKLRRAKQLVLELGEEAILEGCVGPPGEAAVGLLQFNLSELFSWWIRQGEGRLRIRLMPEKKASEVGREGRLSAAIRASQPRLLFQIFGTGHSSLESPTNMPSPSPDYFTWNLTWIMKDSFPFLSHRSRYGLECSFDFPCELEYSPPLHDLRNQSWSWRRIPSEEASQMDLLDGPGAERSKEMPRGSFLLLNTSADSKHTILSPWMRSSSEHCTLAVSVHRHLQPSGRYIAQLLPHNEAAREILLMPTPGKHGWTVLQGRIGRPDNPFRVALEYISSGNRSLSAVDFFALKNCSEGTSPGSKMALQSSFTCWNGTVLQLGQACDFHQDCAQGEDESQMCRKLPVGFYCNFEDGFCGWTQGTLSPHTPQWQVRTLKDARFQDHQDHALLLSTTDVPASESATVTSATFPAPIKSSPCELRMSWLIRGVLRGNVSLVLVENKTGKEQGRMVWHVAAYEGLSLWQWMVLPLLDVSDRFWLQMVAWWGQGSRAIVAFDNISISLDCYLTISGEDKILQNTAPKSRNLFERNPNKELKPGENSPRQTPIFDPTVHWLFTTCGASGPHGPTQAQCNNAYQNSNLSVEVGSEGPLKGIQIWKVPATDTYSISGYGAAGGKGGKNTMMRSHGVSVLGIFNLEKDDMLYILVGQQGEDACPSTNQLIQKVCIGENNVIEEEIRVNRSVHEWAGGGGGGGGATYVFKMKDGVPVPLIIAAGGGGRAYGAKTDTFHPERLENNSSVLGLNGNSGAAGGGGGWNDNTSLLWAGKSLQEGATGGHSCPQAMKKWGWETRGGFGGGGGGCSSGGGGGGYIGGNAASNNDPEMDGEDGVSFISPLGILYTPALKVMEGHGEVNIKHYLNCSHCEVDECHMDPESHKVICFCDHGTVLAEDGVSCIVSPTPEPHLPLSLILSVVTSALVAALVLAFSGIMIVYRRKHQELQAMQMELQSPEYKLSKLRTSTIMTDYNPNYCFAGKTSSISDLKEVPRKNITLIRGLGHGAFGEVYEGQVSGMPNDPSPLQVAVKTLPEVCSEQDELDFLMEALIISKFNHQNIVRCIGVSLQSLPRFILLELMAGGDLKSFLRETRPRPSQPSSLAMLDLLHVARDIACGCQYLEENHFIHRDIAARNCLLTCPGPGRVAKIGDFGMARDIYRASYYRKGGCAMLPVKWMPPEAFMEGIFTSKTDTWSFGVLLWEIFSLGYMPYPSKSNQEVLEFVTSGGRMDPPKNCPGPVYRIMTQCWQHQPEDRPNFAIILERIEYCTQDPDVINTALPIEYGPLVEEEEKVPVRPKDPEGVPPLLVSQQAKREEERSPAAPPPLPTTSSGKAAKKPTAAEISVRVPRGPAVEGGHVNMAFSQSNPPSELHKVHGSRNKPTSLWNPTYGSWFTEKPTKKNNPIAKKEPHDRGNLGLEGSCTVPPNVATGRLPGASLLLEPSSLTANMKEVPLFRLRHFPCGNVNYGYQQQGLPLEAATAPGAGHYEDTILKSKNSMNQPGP
T1 sequence (Q9UM73 whole entry, change not shown, the tested form may be a part): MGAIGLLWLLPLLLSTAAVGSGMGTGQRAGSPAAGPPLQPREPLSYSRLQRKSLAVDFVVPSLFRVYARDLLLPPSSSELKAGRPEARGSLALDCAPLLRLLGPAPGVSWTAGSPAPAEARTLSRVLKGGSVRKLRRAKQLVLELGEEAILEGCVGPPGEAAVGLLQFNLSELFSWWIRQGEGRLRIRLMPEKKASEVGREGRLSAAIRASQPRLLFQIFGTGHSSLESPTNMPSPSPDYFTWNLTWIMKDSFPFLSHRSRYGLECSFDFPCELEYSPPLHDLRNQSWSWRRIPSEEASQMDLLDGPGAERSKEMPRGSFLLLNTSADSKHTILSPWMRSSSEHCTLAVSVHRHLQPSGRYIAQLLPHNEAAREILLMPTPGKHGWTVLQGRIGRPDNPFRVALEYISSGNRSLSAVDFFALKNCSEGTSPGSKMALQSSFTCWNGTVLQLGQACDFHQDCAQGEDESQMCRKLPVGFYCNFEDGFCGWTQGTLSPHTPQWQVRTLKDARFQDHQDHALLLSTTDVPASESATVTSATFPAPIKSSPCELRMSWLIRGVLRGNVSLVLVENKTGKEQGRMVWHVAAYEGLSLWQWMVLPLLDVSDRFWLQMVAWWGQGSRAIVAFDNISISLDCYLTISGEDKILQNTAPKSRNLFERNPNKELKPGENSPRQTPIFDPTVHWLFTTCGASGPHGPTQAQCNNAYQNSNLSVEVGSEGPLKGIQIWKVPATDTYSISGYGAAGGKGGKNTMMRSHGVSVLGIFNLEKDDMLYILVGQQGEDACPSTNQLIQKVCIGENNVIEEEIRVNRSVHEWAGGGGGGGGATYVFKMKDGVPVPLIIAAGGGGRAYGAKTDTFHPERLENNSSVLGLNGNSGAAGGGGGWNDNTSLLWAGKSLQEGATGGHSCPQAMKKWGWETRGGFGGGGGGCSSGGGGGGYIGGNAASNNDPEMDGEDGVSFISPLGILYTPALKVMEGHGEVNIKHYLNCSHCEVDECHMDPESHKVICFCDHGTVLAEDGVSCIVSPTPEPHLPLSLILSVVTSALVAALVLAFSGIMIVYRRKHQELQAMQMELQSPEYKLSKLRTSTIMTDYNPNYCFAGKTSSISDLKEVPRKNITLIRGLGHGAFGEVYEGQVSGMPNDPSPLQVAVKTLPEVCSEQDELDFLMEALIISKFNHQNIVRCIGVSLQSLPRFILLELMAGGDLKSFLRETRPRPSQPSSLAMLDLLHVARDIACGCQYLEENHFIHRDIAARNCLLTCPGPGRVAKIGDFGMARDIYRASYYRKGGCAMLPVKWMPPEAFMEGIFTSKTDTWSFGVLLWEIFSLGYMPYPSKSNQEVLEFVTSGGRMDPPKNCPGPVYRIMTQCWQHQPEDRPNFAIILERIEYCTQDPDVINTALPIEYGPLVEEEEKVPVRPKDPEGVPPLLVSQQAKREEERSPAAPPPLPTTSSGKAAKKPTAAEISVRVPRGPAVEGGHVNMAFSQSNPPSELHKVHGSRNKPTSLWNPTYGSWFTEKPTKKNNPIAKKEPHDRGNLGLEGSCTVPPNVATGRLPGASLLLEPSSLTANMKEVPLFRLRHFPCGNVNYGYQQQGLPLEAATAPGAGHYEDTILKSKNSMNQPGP

Row | GI50 [1] | IC50 [3, 4] | IC50 ([3]; read-out: IC50 in the ALK kinase assay) | liver weight at the end of the study ([2]; control group 1.523) | Compound | Tumor growth inhibition (TGI, %) ([2]; Table C, day 2) | Tumor growth inhibition (TGI, %) ([2]; Table C, day 5) | Tumor growth inhibition (TGI, %) ([2]; Table C, day 8) | Tumor growth inhibition (TGI, %) ([2]; Table C, day 11) | Tumor growth inhibition (TGI, %) ([2]; Table C, day 14) | Tumor growth inhibition (TGI, %) ([2]; Table B, day 4) | Tumor growth inhibition (TGI, %) ([2]; Table B, day 7) | Tumor growth inhibition (TGI, %) ([2]; Table B, day 9)
1 | ≤ 100 nM | ≤ 100 nM | 2.6 nM | – | [2H]C([2H])([2H])N1CCC(n2cc(-c3cnc(N)c(O[C@H](C)c4c(Cl)ccc(F)c4Cl)c3)cn2)CC1 [Compound 20, (R)-3-(1-(2,6-dichloro-3-fluorophenyl)ethoxy)-5-(1-(1-d3-methylpiperidin-4-yl)-1H-pyrazol-4-yl)pyridin-2-amine] | 29.80% | 58.20% | 71.73% | 90.29% | 92.09% | – | – | –
2 | ≤ 100 nM | ≤ 100 nM | – | 1.318 gram | CC(=O)Nc1ncc(-c2cnn(C3CCNCC3)c2)cc1O[C@H](C)c1c(Cl)ccc(F)c1Cl [Compound 18, (R)—N-(3-(1-(2,6-dichloro-3-fluorophenyl)ethoxy)-5-(1-(piperidin-4-yl)-1H-pyrazol-4-yl)pyridin-2-yl)acetamide] | – | – | – | – | – | 24.11% | 38.91% | 39.08%
